Source: ChEMBL document CHEMBL1143763, “Synthesis, in vitro assay, and molecular modeling of new piperidine derivatives having dual inhibitory potency against acetylcholinesterase and Abeta1-42 aggregation for Alzheimer's disease therapeutics” (Bioorg Med Chem, 2007)

Target: Acetylcholinesterase (Electrophorus electricus, UniProt O42275)
Sequence (O42275 whole entry): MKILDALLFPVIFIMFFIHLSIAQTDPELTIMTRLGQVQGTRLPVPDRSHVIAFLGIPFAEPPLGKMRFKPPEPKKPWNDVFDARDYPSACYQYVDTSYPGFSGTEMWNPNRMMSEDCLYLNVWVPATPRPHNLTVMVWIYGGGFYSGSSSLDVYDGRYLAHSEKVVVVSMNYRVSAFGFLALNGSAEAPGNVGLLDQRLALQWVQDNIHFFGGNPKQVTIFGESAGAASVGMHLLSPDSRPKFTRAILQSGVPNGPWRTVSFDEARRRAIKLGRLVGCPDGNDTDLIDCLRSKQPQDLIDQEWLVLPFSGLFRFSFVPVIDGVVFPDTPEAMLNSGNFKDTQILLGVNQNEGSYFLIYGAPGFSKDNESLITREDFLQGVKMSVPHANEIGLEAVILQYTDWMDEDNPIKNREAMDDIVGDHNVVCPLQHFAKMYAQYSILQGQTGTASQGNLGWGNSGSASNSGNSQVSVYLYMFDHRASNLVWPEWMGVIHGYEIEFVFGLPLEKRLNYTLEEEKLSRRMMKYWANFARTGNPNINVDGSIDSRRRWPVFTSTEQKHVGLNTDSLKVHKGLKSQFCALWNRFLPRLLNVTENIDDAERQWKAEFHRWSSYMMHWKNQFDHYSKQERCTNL
Description: Inhibition of Electrophorus electricus AChE by Ellman's method

SMILES	IC50 [µM]
O=C(OCCCCN1CCC(OC(c2ccccc2)c2ccccc2)CC1)c1cccc(F)c1	7.72
O=C(OCCCCN1CCC(OC(c2ccccc2)c2ccccc2)CC1)c1ccc(Cl)cc1	0.31

Target: Cholinesterase (Homo sapiens, UniProt P06276)
Sequence (P06276 whole entry): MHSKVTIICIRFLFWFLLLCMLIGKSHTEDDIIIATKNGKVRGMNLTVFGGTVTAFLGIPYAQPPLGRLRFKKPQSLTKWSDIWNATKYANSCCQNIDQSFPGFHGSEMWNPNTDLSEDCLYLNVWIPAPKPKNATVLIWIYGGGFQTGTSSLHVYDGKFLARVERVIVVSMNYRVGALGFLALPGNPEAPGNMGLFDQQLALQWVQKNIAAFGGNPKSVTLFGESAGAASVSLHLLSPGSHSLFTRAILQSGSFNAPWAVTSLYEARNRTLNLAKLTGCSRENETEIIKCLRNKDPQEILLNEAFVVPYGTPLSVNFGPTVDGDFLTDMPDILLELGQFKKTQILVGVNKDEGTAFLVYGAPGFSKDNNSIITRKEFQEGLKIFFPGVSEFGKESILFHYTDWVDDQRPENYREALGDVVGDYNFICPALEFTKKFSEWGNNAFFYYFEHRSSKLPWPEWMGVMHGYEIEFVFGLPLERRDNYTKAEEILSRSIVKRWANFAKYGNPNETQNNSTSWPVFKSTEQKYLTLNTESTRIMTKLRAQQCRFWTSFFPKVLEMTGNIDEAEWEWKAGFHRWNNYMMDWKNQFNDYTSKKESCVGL
Description: Inhibition of human BChE by Ellman's method

SMILES	IC50 [µM]
O=C(OCCCCN1CCC(OC(c2ccccc2)c2ccccc2)CC1)c1cccc(F)c1	31.5
O=C(OCCCCN1CCC(OCc2ccccc2)CC1)c1ccccc1	1.89
O=C(OCCCCN1CCC(OCc2ccccc2)CC1)c1ccc(F)cc1	0.56
O=C(Nc1ccc(F)cc1)OCCCCN1CCC(OC(c2ccccc2)c2ccccc2)CC1	15.7
CC(C)c1ccc(C(=O)OCCCCN2CCC(OC(c3ccccc3)c3ccccc3)CC2)cc1	23.2
O=C(OCCCCN1CCC(OC(c2ccccc2)c2ccccc2)CC1)c1ccc([N+](=O)[O-])cc1	26.8
O=C(OCCCCN1CCC(OCc2ccccc2)CC1)c1ccc(Cl)cc1	3.52
O=C(OCCCCN1CCC(OC(c2ccccc2)c2ccccc2)CC1)c1ccc(Cl)cc1	38.4
O=C(Nc1ccc(Cl)cc1)OCCCCN1CCC(OCc2ccccc2)CC1	0.25
O=C(OCCCCN1CCC(OCc2ccccc2)CC1)c1cccc(F)c1	1.58
O=C(OCCCCN1CCC(OCc2ccccc2)CC1)c1ccc([N+](=O)[O-])cc1	5.23
O=C(OCCCCN1CCC(OC(c2ccccc2)c2ccccc2)CC1)c1ccccc1	31.5
O=C(Nc1ccc(F)cc1)OCCCCN1CCC(OCc2ccccc2)CC1	0.78
O=C(OCCCCN1CCC(OCc2ccccc2)CC1)c1cccc(Cl)c1	1.35
O=C(OCCCCN1CCC(OC(c2ccccc2)c2ccccc2)CC1)c1ccc(F)cc1	22.2
CC(C)(C)c1ccc(C(=O)OCCCCN2CCC(OCc3ccccc3)CC2)cc1	15.2
O=C(Nc1ccc(Cl)cc1)OCCCCN1CCC(OC(c2ccccc2)c2ccccc2)CC1	13.7
O=C(OCCCCN1CCC(OC(c2ccccc2)c2ccccc2)CC1)c1cccc(Cl)c1	57.9
CC(C)(C)c1ccc(C(=O)OCCCCN2CCC(OC(c3ccccc3)c3ccccc3)CC2)cc1	78.9
CC(C)c1ccc(C(=O)OCCCCN2CCC(OCc3ccccc3)CC2)cc1	10.8
